In article PMC2848589, “Raltegravir Is a Potent Inhibitor of XMRV, a Virus Implicated in Prostate Cancer and Chronic Fatigue Syndrome” (PLoS ONE, 2010):
Where a name gives a salt, the structure may show the parent alone.

Key:
HIV-1LAI = test: HIV-1 replication in PHA-stimulated peripheral blood mononuclear cells; format: cell-based; conditions: Human immunodeficiency virus 1, PBMC; for EC50: read-out: HIV-1 in PBM cells EC50; for EC90: read-out: HIV-1 in PBM cells EC90
Procedure: (§1) We tested a total of 45 compounds belonging to different classes of HIV-1 inhibitors, and a few inhibitors of viruses other than retroviruses, for their ability to inhibit XMRV replication in cultured cells. LNCaP and MCF-7 cells were chosen for their ability to support robust in vitro replication of XMRV. […] To determine if a reduction in viral release might be due to toxicity of the compound and not due to specific antiretroviral activity, cellular morphology was monitored every 24 h by microscopic examination, and an MTT [3-(4,5-dimethylthiazol-2-yl)-2,5-diphenyltetrazolium bromide] colorimetric assay was used to measure potential cytotoxicity produced by the compounds. Supernatants were collected every 24 h and assayed for viral release by measuring RT activity. […] For comparison purposes, all compounds evaluated in these studies were also tested against HIV-1LAI in primary human lymphocytes.
(§2) Each well was carefully monitored for signs of cellular toxicity due to the inhibitors by microscopic observation every 24 h. In addition, cell viability was measured using the CellTiter 96 AQueous One Solution cell proliferation assay according to the manufacturer (Promega, Madison, Wis). Viral release from the cells was assayed by measuring RT activity in the supernatant. For this, supernatant from each well was collected every 24 h and frozen at −20°C until it was analyzed by RT assay for viral release as described previously. In brief, oligo(dT)·poly(rA) primer-template assays were performed in the presence of radiolabeled [α-^32P]dTTP and Mn^2+. After incubating the viral supernatants with the RT reaction mix for 1 h at 37°C, samples were spotted onto DE81 DEAE cellulose paper (Whatman) and unincorporated label washed away with 2× SSC (1× SSC = 0.15 M NaCl and 0.015 M sodium citrate). […] Inhibition of viral release as measured on day 6 after inoculation was averaged over 3–5 experiments and plotted. The antiviral EC50 and cytotoxic concentrations (CC50,) was determined from the concentration–response curve using the median effect method. HIV-1 replication assays were performed as described previously using peripheral blood mononuclear cells (PBMC) obtained from the American Red Cross, Atlanta, GA, that were stimulated with phytohemagglutinin (PHA) for 72 hr.

XMRV [1] = test: XMRV replication in LNCaP cells (viral release by RT activity in supernatant); format: cell-based; conditions: for EC50: read-out: EC50 in LNCaP cells; for EC90: read-out: EC90 in LNCaP cells; for inhibition at 100 µM: read-out: inhibition of XMRV replication
Procedure: as §1
Viral release from XMRV-infected LNCaP cells in the presence of increasing concentrations of (A) ZDV (B) TDF (C) RAL and (D) L-000870812, was determined by measuring RT activity in the supernatants. […] Cell viability was checked by microscopy, quantified by the MTT assay, and represented by shaded bars. Data for each compound were derived from an average of at least three independent experiments, each performed in duplicate.
293T cells (ATCC, CRL-11268) were transfected with pXMRV1, an infectious clone of XMRV [2]. Virus released in the supernatant was harvested and titrated by inoculating MCF-7 cells, a breast cancer cell line (ATCC, HTB-22) at 70% confluence, with a series of ten-fold dilutions of XMRV in serum-free medium, followed 36–48 hrs later by fixation of cells in paraformaldehyde and processing for immunofluorescence using a rabbit antiserum developed against inactivated XMRV [2]. […] Virus was diluted in serum-free medium and used to inoculate cells at a multiplicity of infection (MOI) of approximately 3, in the presence of various antiviral compounds as described below. LNCaP, a prostate cancer cell line (ATCC, CRL-1740) and MCF-7 cells were grown to about 50% confluence in DMEM containing 10% heat inactivated fetal bovine serum, […]. Cells were washed twice with Dulbecco's phosphate buffered saline (DPBS, Gibco), and incubated with the viral inoculum for 90 min at 37°C in the presence of 95% air and 5% CO2, cells were washed twice with DPBS, detached with Trypsin-EDTA (0.25% Trypsin; Cellgro), and counted. One thousand cells were added to each well of a 96-well plate, along with an equal volume of medium containing the retroviral inhibitor at 2-fold the desired concentration. […] For controls, wells containing water or DMSO at appropriate concentrations were used.
Each well was carefully monitored for signs of cellular toxicity due to the inhibitors by microscopic observation every 24 h. In addition, cell viability was measured using the CellTiter 96 AQueous One Solution cell proliferation assay according to the manufacturer (Promega, Madison, Wis). Viral release from the cells was assayed by measuring RT activity in the supernatant. For this, supernatant from each well was collected every 24 h and frozen at −20°C until it was analyzed by RT assay for viral release as described previously. In brief, oligo(dT)·poly(rA) primer-template assays were performed in the presence of radiolabeled [α-^32P]dTTP and Mn^2+. After incubating the viral supernatants with the RT reaction mix for 1 h at 37°C, samples were spotted onto DE81 DEAE cellulose paper (Whatman) and unincorporated label washed away with 2× SSC (1× SSC = 0.15 M NaCl and 0.015 M sodium citrate).

[2] = Cytotoxicity in MCF-7 cells (MTT / CellTiter 96 AQueous One); format: cell-based, human; conditions: human
Procedure: as §1, §2

[3] = Cytotoxicity in PBM cells; format: cell-based; conditions: human, read-out: HIV-1 in PBM cells CC50
Procedure: as §2

XMRV [4] = test: XMRV replication in MCF-7 cells (viral release by RT activity in supernatant); format: cell-based; conditions: for EC50 / EC90: MCF7, 144 h; for EC50: read-out: XMRV in MCF-7 cells EC50; for EC90: read-out: XMRV in MCF-7 cells EC90; for therapeutic index (TI, the ratio of CC50/EC50): XMRV, MCF-7 cells; for activity against XMRV (in words): tested up to 100 µM, Figure 1
MCF-7 cells = test: Cytotoxicity in MCF-7 cells (MTT / CellTiter 96 AQueous One); format: cell-based, human
Procedure: as §1, §2

[5] = peripheral blood mononuclear (PBM) cells
[6] = MCF-7 cells, read-out: XMRV in MCF-7 cells CC50
[7] = XMRV-infected MCF-7 cells, RT activity in supernatant, day 6

Row | SMILES | EC50 (HIV-1LAI) | EC90 (HIV-1LAI) | CC50 [2] | CC50 [3, 5] | EC50 (XMRV [4]) | EC90 (XMRV [4]) | other results
1 | Cc1cn([C@H]2C[C@H](N=[N+]=[N-])[C@@H](CO)O2)c(=O)[nH]c1=O [3'-Azido-3'-deoxythymidine (ZDV), 3'-Azido-3'-deoxythymidine] | 0.0052 µM | 0.036 µM | 65 µM | > 100 µM | 0.11 µM | 7.3 µM | EC50 (XMRV [1]; LNCaP): 0.14 µM; EC90 (XMRV [1]; LNCaP): 1.1 µM; therapeutic index (TI, the ratio of CC50/EC50) (XMRV [4]): 591
2 | Cc1cn([C@H]2C[C@H](F)[C@@H](CO)O2)c(=O)[nH]c1=O [3'-Fluoro-3'-deoxythymidine (FLT), 3'-Fluoro-3'-deoxythymidine] | 0.00018 µM | 0.005 µM | 75.8 µM | 13.8 µM | 7.9 µM | > 100 µM | inhibition at 100 µM (XMRV [1]; LNCaP): > 70%
3 | Nc1nc2c(ncn2C2COC(CO)O2)c(=O)[nH]1 [9-(β-D-1,3-Dioxolan-4-yl)guanine (DXG), 9-(β-D-1,3-Dioxolan-4-yl)guanine] | – | – | – | – | – | – | CC50 (MCF-7 cells): > 100 µM; activity against XMRV (in words) (XMRV [4]): essentially inactive
4 | Nc1nc2c(ncn2[C@H]2C=C[C@@H](CO)C2)c(=O)[nH]1 [(-)-carbovir (CBV), (-)-carbovir] | – | – | – | – | – | – | inhibition of XMRV replication (XMRV [1]; 100 µM, see Table S1 (cell line not given)): greater than 70%; CC50 (MCF-7 cells): > 100 µM
5 | Nc1ccn([C@H]2C=C[C@@H](CO)O2)c(=O)n1 [D4C] | – | – | – | – | – | – | CC50 (MCF-7 cells): > 100 µM
6 | Cc1nnc(C(=O)NC(C)(C)c2nc(C(=O)NCc3ccc(F)cc3)c(O)c(=O)n2C)o1 [Raltegravir (RAL, MK-0518), Raltegravir] | 0.0014 µM | 0.0089 µM | – | – | – | – | EC50 (XMRV [1]; XMRV-infected LNCaP cells): 0.03 µM; EC90 (XMRV [1]; XMRV-infected LNCaP cells): 0.46 µM; CC50 [2, 6]: 92.3 µM; CC50 [3]: > 100 µM; EC50 (XMRV [4]; [7]): 0.005 µM; EC90 (XMRV [4]; [7]): 3.5 µM; therapeutic index (TI, the ratio of CC50/EC50) (XMRV [4]): 18,460
7 | Cc1cn([C@H]2C=C[C@@H](CO)O2)c(=O)[nH]c1=O [Stavudine (D4T), Stavudine] | 0.09 µM | 0.49 µM | – | > 100 µM | 75.6 µM | > 100 µM | inhibition at 100 µM (XMRV [1]; LNCaP): > 70%; CC50 [2, 6]: > 100 µM
8 | CC(C)OC(=O)OCOP(=O)(CO[C@H](C)Cn1cnc2c(N)ncnc21)OCOC(=O)OC(C)C [Tenofovir disoproxil fumarate (TDF), Tenofovir disoproxil fumarate] | 0.016 µM | 0.18 µM | 52.2 µM | 17.8 µM | 0.24 µM | 15.3 µM | EC50 (XMRV [1]; LNCaP): 0.9 µM; EC90 (XMRV [1]; LNCaP): 4.2 µM; therapeutic index (TI, the ratio of CC50/EC50) (XMRV [4]): 218
9 | Nc1ncnc2c1ncn2[C@@H]1O[C@H](CO)[C@@H](O)[C@@H]1O [Vidarabine (ara-A), Vidarabine] | 30.6 µM | > 100 µM | 50.5 µM | > 100 µM | 4.4 µM | > 100 µM | –
10 | O=c1[nH]cnc2c1ncn2[C@H]1CC[C@@H](CO)O1 [Videx (DDI), Videx] | 0.29 µM | 2.2 µM | > 100 µM | > 100 µM | > 100 µM | > 100 µM | activity against XMRV (in words) (XMRV [4]): essentially inactive
11 | Nc1ccn(C[C@@H](CO)OCP(=O)(O)O)c(=O)n1 [Vistide (HPMPC), Vistide] | > 100 µM | > 100 µM | – | > 100 µM | 85.3 µM | > 100 µM | CC50 [2, 6]: > 100 µM
12 | Nc1ccn([C@H]2CC[C@@H](CO)O2)c(=O)n1 [Zalcitabine (ddC), Zalcitabine] | 0.044 µM | 0.31 µM | 89.8 µM | > 100 µM | > 100 µM | > 100 µM | –
